{"source": "patent US4680285A", "about": "“Treatment of malignant tumors with 2-(β-D-ribofuranosylthiazole-4-carboxamide related compounds” (priority 1985, dated 1987)", "key": {"virus": {"system": "virus", "details": "cited from earlier work"}, "[1]": {"system": "P388 lymphocytic leukemia", "assay": "P388 lymphocytic leukemia in vivo, median survival, 30-day test (Examples 7 and 8)", "parameters": "species or system CD2 F1 female mice", "details": "for Percent Treated Animals/Control Animals / Treated Group Survival Time (median): Ex. 7a/8, saline with tween/80; for Treated Group Survival Time (median): control 12.6", "description": "For examples 7 and 8, CD2 F1 female mice were used and challenged with P388 lymphocytic leukemia tumors. […] The test period was for thirty days in both Examples 7 and 8.\nFor Examples 7 and 8, as well as Examples 9 and 10 below, any animal of the drug treated group which survived beyond the end of the testing period was then evaluated and placed in one of three groups. The first group was designated as cured, meaning the animal was successfully cured of the tumor. The second group designation was no-takes, meaning survival of the animal was considered to be due to failure of tumor implant. The remaining group was designated as tumor survivors meaning the animals lived beyond the test cut-off date but could not be classified as either cured or no-takes.\nFor both Examples 7 and 8, thirty animals were used as the control group and six animals each were used at each dose level indicated in tables 3 and 4 below in the drug treated groups. In both Examples 7 and 8, for both the control group and the drug treated groups, tumors were induced by IP inoculation of tumor seed cells on day zero followed by initiation of drug treatment on day one. For both Examples 7a and 8, saline with tween/80 was used as the drug vehicle. For Examples 7b and 7c, water was used as the drug vehicle.\nIn both the control group and the drug treated group in Examples 7 and 8, the test animals were inoculated on day zero IP with 10^6 seed cells of P388 lymphocytic leukemia. In both Examples 7 and 8, treatment of the drug group was started on day one and the drug was given IP once daily for nine days. Day six was utilized as the cut-off data for death attributable to toxicity of the drug. […] Efficacy of treatment was determined by comparing median survival time of the drug treated animals compared to median survival time of the control animals, and is expressed as percentage increase of treated animals/control animals (T/C) as per Example 5.\nIn this example drug treated animals were injected IP with the dose level noted in Table 3 below. Six animals were treated at each dose level. No control animals survived beyond day 18 with a median death date of day 12.6.\nThis examples was performed as per Example 7a at dose levels as noted in table 3b below. A survivor at both the 700 and 800 mg/Kg level was judged as cured. No controls survived beyond day 12 and the mean death day of the control group was day 11.\nThis example was run as per Example 7a above at dose levels noted in Table 3c below. All controls were dead by day 14 with a mean death day of day 11.9. At the 500 mg/Kg level, one animal was judged as a cure.\nCompound 2, 2-(2,3,5-tri-O-acetyl-β-D-ribofuranosyl)thiazole-4-carboxamide was tested as per Example 7a above at dose levels noted in Table 4 below. No controls survived beyond day 18 with an average death date of day 12.6."}, "[2]": {"system": "P388 lymphocytic leukemia", "format": "in vivo, CD2 F1 female mice", "details": "for Percent Treated Animals/Control Animals / Treated Group Survival Time (mean): nine days; for Treated Group Survival Time (mean): control 10.2", "source_text": "Compound 2, 2-(2,3,5-tri-O-acetyl-β-D-ribofuranosyl)thiazole-4-carboxamide was screened in a manner similar to that shown in Example 5, however, the tumor system used as the test tumor was P388 lymphocytic leukemia. 10^6 seed cells were used to initiate the tumor in both the control group and the drug treated group of animals. The same strain of mice was used except female mice were substituted for males. Test results were based on mean survival time and are expressed as T/C percentages (treated animals/control animals) as per Example 5.\nIn the drug treated animals, treatment was initiated one day after tumor inoculation and the drug was given at the dose levels noted below in table 2. Drug treatment was for nine days and drug toxicity, as in Example 5, was measured on day six.\nAverage day of death for the control group was 10.2 days whereas at the lowest level of drug treatment the treated animals survived for more than 15 days. As with Example 5, 125% increase in longevity of treated animals over control animals was taken as indicative of positive drug response."}, "[3]": {"system": "type 3 parainfluenza virus", "details": "cited from earlier work"}, "[4]": {"system": "type 1 herpes simplex virus", "details": "cited from earlier work"}, "malignant tumors [5]": {"system": "malignant tumors", "assay": "antitumor activity in vivo (general statements)", "details": "summary statements"}, "type 3 rhinovirus": {"system": "type 3 rhinovirus", "details": "cited from earlier work"}, "L-1210 lymphoid leukemia": {"system": "L-1210 lymphoid leukemia", "assay": "L-1210 lymphoid leukemia in vivo, mean survival (Example 11)", "parameters": "species or system CD2 F1 male mice", "details": "for Percent Treated Animals Control Animals / Treated Group Survival Time (mean): saline", "excerpt": "For Example 9a and 9b, CD2 F1 male mice were used and challenged with L-1210 lymphoid leukemia. […] The test period was for thirty days. Test results are expressed as T/C as per Example 5.\nIn both the control groups and the drug treated groups in Examples 9a and 9b, the test animals were inoculated on day zero IP with 10^6 seed cells of L-1210 lymphoid leukemia. For Example 9a, drug treatment was started on day one and compound 1 given once daily for nine days. Day five was utilized as the cutoff date for death attributable to toxicity of the drug. […] Efficacy of treatment was determined by comparing mean survival time of drug treated animals with mean survival time of the control animals and is expressed as percentage increase of treated animals/control animals (T/C) as per Example 5.\nThe compound test dosage levels are as noted in tables 7a and 7b below for Example 11a and 11b respectively. In these examples, thirty-six control animals were used and six test animals each at the drug dose levels as is shown in tables 7a and 7b. Saline was used as the drug vehicle.\nFor both the control groups and the drug test groups, tumors were induced by IP inoculation of tumor seed cells on day zero followed by initiation of drug treatment on day one wherein compound 3 was given once daily for 5 days. Test results are expressed as T/C as per example 5."}, "malignant tumors [6]": {"system": "malignant tumors", "details": "known from literature; cited from earlier work"}, "viruses": {"system": "viruses", "details": "cited from earlier work"}}, "note": "“Also recorded” adds a separate entry of the source. Like-named read-outs stand apart in the source and are kept apart here.", "data": [{"smiles": "CC(=O)OC[C@H]1O[C@@H](c2nc(C(N)=O)cs2)[C@H](OC(C)=O)[C@@H]1OC(C)=O", "note": "[Compound 2, 2-(2,3,5-Tri-O-Acetyl-β-D-Ribofuranosyl)thiazole-4-Carboxamide]", "values": [{"measurement": "number of deaths of test animals vs placebo control animals", "setting": "virus; in vivo antiviral tests", "result": "equal to or exceeded the number of deaths of the placebo control animals"}, {"measurement": "in vivo antiviral activity", "setting": "virus; in vivo", "result": "negative"}, {"measurement": "Percent Treated Animals/Control Animals", "setting": "[1]; 12.5 mg/Kg IP once daily x9", "result": 110, "unit": "%"}, {"measurement": "Treated Group Survival Time (median)", "setting": "[1]; 12.5 mg/Kg IP once daily x9", "result": 13.7, "unit": "days"}, {"measurement": "Percent Treated Animals/Control Animals", "setting": "[1]; 25 mg/Kg IP once daily x9", "result": 113, "unit": "%"}, {"measurement": "Treated Group Survival Time (median)", "setting": "[1]; 25 mg/Kg IP once daily x9", "result": 14.3, "unit": "days"}, {"measurement": "Percent Treated Animals/Control Animals", "setting": "[1]; 50 mg/Kg IP once daily x9", "result": 121, "unit": "%"}, {"measurement": "Treated Group Survival Time (median)", "setting": "[1]; 50 mg/Kg IP once daily x9", "result": 15.3, "unit": "days"}, {"measurement": "Percent Treated Animals/Control Animals", "setting": "[1]; 100 mg/Kg IP once daily x9", "result": 145, "unit": "%"}, {"measurement": "Treated Group Survival Time (median)", "setting": "[1]; 100 mg/Kg IP once daily x9", "result": 18.3, "unit": "days"}, {"measurement": "Percent Treated Animals/Control Animals", "setting": "[1]; 200 mg/Kg IP once daily x9", "result": 150, "unit": "%"}, {"measurement": "Treated Group Survival Time (median)", "setting": "[1]; 200 mg/Kg IP once daily x9", "result": 19.0, "unit": "days"}, {"measurement": "Percent Treated Animals/Control Animals", "setting": "[1]; 400 mg/Kg IP once daily x9", "result": 161, "unit": "%"}, {"measurement": "Treated Group Survival Time (median)", "setting": "[1]; 400 mg/Kg IP once daily x9", "result": 20.3, "unit": "days"}, {"measurement": "surviving animals judged as no-take", "setting": "[1]; Ex. 7a/8, 50 mg/Kg, thirty days", "result": "one surviving animal was judged as a no-take"}, {"measurement": "activity against P388 lymphocytic leukemia", "setting": "[1]; Examples 7 and 8, multiple dose", "result": "active antitumor agents; also recorded: active against P388 lymphocytic leukemia"}, {"measurement": "DN 2 (Decision Network) criteria of the National Cancer Institute", "setting": "[1]; P388", "result": "successfully passed"}, {"measurement": "Percent Treated Animals/Control Animals", "setting": "[2]; 50 mg/Kg IP", "result": 150, "unit": "%"}, {"measurement": "Treated Group Survival Time (mean)", "setting": "[2]; 50 mg/Kg IP", "result": 15.3, "unit": "days"}, {"measurement": "Percent Treated Animals/Control Animals", "setting": "[2]; 100 mg/Kg IP", "result": 176, "unit": "%"}, {"measurement": "Treated Group Survival Time (mean)", "setting": "[2]; 100 mg/Kg IP", "result": 18.0, "unit": "days"}, {"measurement": "Percent Treated Animals/Control Animals", "setting": "[2]; 200 mg/Kg IP", "result": 179, "unit": "%"}, {"measurement": "Treated Group Survival Time (mean)", "setting": "[2]; 200 mg/Kg IP", "result": 18.3, "unit": "days"}, {"measurement": "survival of treated animals", "setting": "[2]; lowest level of drug treatment, control 10.2 days", "result": "more than 15 days"}, {"measurement": "in vitro antiviral activity", "setting": "[3]", "result": "negative"}, {"measurement": "in vitro antiviral activity", "setting": "[4]", "result": "only moderate activity"}, {"measurement": "antitumor activity", "setting": "malignant tumors [5]", "result": "effective antitumor agent when injected intraperitoneally"}, {"measurement": "in vitro antiviral activity", "setting": "type 3 rhinovirus", "result": "negative"}]}, {"smiles": "NC(=O)c1csc([C@@H]2O[C@H](COP(=O)(O)O)[C@@H](O)[C@H]2O)n1", "note": "[Compound 3, 2-(5-O-Phosphoryl-β-D-Ribofuranosyl)thiazole-4 Carboxamide]", "values": [{"measurement": "antitumor activity", "setting": "malignant tumors [5]", "result": "effective in vivo antitumor agents"}, {"measurement": "Percent Treated Animals Control Animals", "setting": "L-1210 lymphoid leukemia; Ex. 11a, 50 mg/Kg once daily x5", "result": 136, "unit": "%"}, {"measurement": "Treated Group Survival Time (mean)", "setting": "L-1210 lymphoid leukemia; Ex. 11a, 50 mg/Kg once daily x5, control 8.3", "result": 11.3, "unit": "days"}, {"measurement": "Percent Treated Animals Control Animals", "setting": "L-1210 lymphoid leukemia; Ex. 11a, 100 mg/Kg once daily x5", "result": 186, "unit": "%"}, {"measurement": "Treated Group Survival Time (mean)", "setting": "L-1210 lymphoid leukemia; Ex. 11a, 100 mg/Kg once daily x5, control 8.3", "result": 15.5, "unit": "days"}, {"measurement": "Percent Treated Animals Control Animals", "setting": "L-1210 lymphoid leukemia; Ex. 11a, 200 mg/Kg once daily x5", "result": 259, "unit": "%"}, {"measurement": "Treated Group Survival Time (mean)", "setting": "L-1210 lymphoid leukemia; Ex. 11a, 200 mg/Kg once daily x5, control 8.3", "result": 21.5, "unit": "days"}, {"measurement": "Percent Treated Animals Control Animals", "setting": "L-1210 lymphoid leukemia; Ex. 11a, 400 mg/Kg once daily x5", "result": 183, "unit": "%"}, {"measurement": "Treated Group Survival Time (mean)", "setting": "L-1210 lymphoid leukemia; Ex. 11a, 400 mg/Kg once daily x5, control 8.3", "result": 15.2, "unit": "days"}, {"measurement": "Percent Treated Animals Control Animals", "setting": "L-1210 lymphoid leukemia; Ex. 11a, 800 mg/Kg once daily x5", "result": 196, "unit": "%"}, {"measurement": "Treated Group Survival Time (mean)", "setting": "L-1210 lymphoid leukemia; Ex. 11a, 800 mg/Kg once daily x5, control 8.3", "result": 16.3, "unit": "days"}, {"measurement": "Percent Treated Animals Control Animals", "setting": "L-1210 lymphoid leukemia; Ex. 11b, 50 mg/Kg once daily x5", "result": 128, "unit": "%"}, {"measurement": "Treated Group Survival Time (mean)", "setting": "L-1210 lymphoid leukemia; Ex. 11b, 50 mg/Kg once daily x5, control 10.1", "result": 13.0, "unit": "days"}, {"measurement": "Percent Treated Animals Control Animals", "setting": "L-1210 lymphoid leukemia; Ex. 11b, 100 mg/Kg once daily x5", "result": 121, "unit": "%"}, {"measurement": "Treated Group Survival Time (mean)", "setting": "L-1210 lymphoid leukemia; Ex. 11b, 100 mg/Kg once daily x5, control 10.1", "result": 12.3, "unit": "days"}, {"measurement": "Percent Treated Animals Control Animals", "setting": "L-1210 lymphoid leukemia; Ex. 11b, 200 mg/Kg once daily x5", "result": 145, "unit": "%"}, {"measurement": "Treated Group Survival Time (mean)", "setting": "L-1210 lymphoid leukemia; Ex. 11b, 200 mg/Kg once daily x5, control 10.1", "result": 14.7, "unit": "days"}, {"measurement": "Percent Treated Animals Control Animals", "setting": "L-1210 lymphoid leukemia; Ex. 11b, 400 mg/Kg once daily x5", "result": 155, "unit": "%"}, {"measurement": "Treated Group Survival Time (mean)", "setting": "L-1210 lymphoid leukemia; Ex. 11b, 400 mg/Kg once daily x5, control 10.1", "result": 15.7, "unit": "days"}, {"measurement": "Percent Treated Animals Control Animals", "setting": "L-1210 lymphoid leukemia; Ex. 11b, 600 mg/Kg once daily x5", "result": 160, "unit": "%"}, {"measurement": "Treated Group Survival Time (mean)", "setting": "L-1210 lymphoid leukemia; Ex. 11b, 600 mg/Kg once daily x5, control 10.1", "result": 16.2, "unit": "days"}, {"measurement": "activity against L-1210 lymphoid leukemia", "setting": "L-1210 lymphoid leukemia; Examples 11a and 11b", "result": "active against L-1210 lymphoid leukemia"}, {"measurement": "drug toxicity", "setting": "L-1210 lymphoid leukemia; Examples 11a and 11b, 50-800 mg/Kg", "result": "No drug toxicity was noted"}]}, {"smiles": "NC(=O)c1ncn([C@@H]2O[C@H](COP(=O)(O)O)[C@@H](O)[C@H]2O)n1", "note": "[RIBAVIRIN 5' monophosphate]", "values": [{"measurement": "antitumor activity", "setting": "malignant tumors [6]", "result": "inactive as antitumor compounds"}]}, {"smiles": "NC(=O)c1ncn([C@@H]2O[C@H](CO)[C@@H](O)[C@H]2O)n1", "note": "[RIBAVIRIN, reference compound]", "values": [{"measurement": "in vitro antiviral activity", "setting": "viruses", "result": "active in vitro antiviral agent"}, {"measurement": "antitumor activity", "setting": "malignant tumors [6]", "result": "no significant antitumor activity"}]}]}
